pIC50: −log10 of the molar value.
How the values were obtained:
Homo sapiens [1] = species on record: Homo sapiens; assay: (§1) Selectivity ratio of IC50 for PI3Kgamma (unknown origin) using PIP2:3PS peptide as substrate preincubated for 15 mins followed by ATP addition at Km concentration and further incubated for 120 mins by ADP-Glo assay to IC50 for PI3Kalpha (unknown origin) using PIP2:3PS peptide as substrate preincubated for 15 mins followed by ATP addition at Km concentration and further incubated for 150 mins by ADP-Glo assay
[2] = target: Phosphatidylinositol 4,5-bisphosphate 3-kinase catalytic subunit alpha isoform (Homo sapiens, UniProt P42336); assay: Inhibition of PI3Kalpha (unknown origin) using PIP2:3PS peptide as substrate preincubated for 15 mins followed by ATP addition at Km concentration and further incubated for 150 mins by ADP-Glo assay
[3] = Inhibition of PI3K in human MCF7 cells assessed as reduction in AKT phosphorylation at residue S473 incubated for 2 hrs followed by insulin addition by ELISA; type: cell-based; conditions: MCF7, 2 h
Homo sapiens [4] = species on record: Homo sapiens; assay: as §1, with “PI3Kbeta” for “PI3Kgamma”
Homo sapiens [5] = species on record: Homo sapiens; assay: as §1, with “PI3Kdelta” for “PI3Kgamma”
[6] = Dose normalized AUC (0 to last) in BALB/c mouse at 10 mg/kg, po by HPLC analysis; type: ADME, organism-based; conditions: in vivo
[7] = Cmax in BALB/c mouse at 10 mg/kg, po by HPLC analysis; type: ADME, organism-based; design: dose 10 mg/kg, route oral; conditions: in vivo

Phosphatidylinositol 4,5-bisphosphate 3-kinase catalytic subunit alpha isoform, sequence (P42336 whole entry, canonical isoform): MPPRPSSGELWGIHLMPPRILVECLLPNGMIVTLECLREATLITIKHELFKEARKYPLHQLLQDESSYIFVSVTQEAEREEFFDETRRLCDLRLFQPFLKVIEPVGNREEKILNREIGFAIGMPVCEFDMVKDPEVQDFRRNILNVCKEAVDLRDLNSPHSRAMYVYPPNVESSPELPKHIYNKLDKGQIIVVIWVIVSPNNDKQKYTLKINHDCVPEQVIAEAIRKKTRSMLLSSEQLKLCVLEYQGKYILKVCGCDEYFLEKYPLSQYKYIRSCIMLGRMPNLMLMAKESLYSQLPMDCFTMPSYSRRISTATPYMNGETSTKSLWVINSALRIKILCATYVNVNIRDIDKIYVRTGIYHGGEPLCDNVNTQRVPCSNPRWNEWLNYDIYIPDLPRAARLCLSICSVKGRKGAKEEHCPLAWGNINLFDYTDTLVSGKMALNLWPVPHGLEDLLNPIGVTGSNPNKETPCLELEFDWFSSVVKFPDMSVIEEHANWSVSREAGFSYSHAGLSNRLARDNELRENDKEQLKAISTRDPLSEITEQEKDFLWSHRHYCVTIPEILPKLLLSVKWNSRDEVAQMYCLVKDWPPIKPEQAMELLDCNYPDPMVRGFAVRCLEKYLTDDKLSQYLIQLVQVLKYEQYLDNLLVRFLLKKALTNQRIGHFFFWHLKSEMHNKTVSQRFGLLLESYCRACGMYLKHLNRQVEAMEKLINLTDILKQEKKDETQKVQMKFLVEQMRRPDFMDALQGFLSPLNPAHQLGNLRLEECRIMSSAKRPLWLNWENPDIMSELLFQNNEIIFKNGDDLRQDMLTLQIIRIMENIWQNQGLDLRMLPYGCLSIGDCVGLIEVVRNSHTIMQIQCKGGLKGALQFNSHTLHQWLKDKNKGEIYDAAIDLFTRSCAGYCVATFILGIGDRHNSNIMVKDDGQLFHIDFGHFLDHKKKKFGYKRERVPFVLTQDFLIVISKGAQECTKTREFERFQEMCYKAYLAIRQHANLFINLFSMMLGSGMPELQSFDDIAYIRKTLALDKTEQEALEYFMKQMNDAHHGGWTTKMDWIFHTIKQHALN

| Compound | Ratio IC50 (Homo sapiens [1]) | pIC50 [2] | pIC50 [3] | Ratio IC50 (Homo sapiens [4]) | Ratio IC50 (Homo sapiens [5]) | AUClast/dose [6] | Cmax [7] |
| --- | --- | --- | --- | --- | --- | --- | --- |
| CNC(=O)[C@H](C)Cn1cnc2ccc(-c3cnc(OC)c(NS(=O)(=O)c4cc(C(F)(F)F)cc(C(F)(F)F)c4)c3)cc2c1=O | 17.3 | 7.68 | – | 109 | 19.4 | – | – |
| CCc1ncc(-c2ccc3ncn(C[C@@H](C)C(=O)NC)c(=O)c3c2)cc1NS(=O)(=O)c1ccc(F)cc1Cl | 14.4 | 8.22 | 6.46 | 309 | 13.8 | – | – |
| CNC(=O)[C@H](C)Cn1cnc2ccc(-c3cnc(C)c(NS(=O)(=O)c4ccc(F)cc4Cl)c3)cc2c1=O | 21 | 8.52 | 6.40 | 406 | 17 | – | – |
| CNC(=O)C(C)Cn1cnc2ccc(-c3cnc(C(F)(F)F)c(NS(=O)(=O)c4ccc(F)cc4Cl)c3)cc2c1=O (racemic) | – | 9.22 | 6.01 | 196 | – | – | – |
| CNC(=O)[C@H](C)Cn1cnc2ccc(-c3cnc(N(C)C)c(NS(=O)(=O)c4ccc(F)cc4Cl)c3)cc2c1=O | – | 8.08 | – | 59.5 | – | – | – |
| CNC(=O)[C@H](C)Cn1cnc2ccc(-c3cnc(CO)c(NS(=O)(=O)c4ccc(F)cc4Cl)c3)cc2c1=O | 12.5 | 7.52 | < 6.00 | > 334 | 17.9 | – | – |
| CNC(=O)[C@H](C)Cn1cnc2ccc(-c3cnc(OC(C)C)c(NS(=O)(=O)c4ccc(F)cc4Cl)c3)cc2c1=O | – | – | 6.41 | – | – | – | – |
| CNC(=O)[C@H](C)Cn1cnc2ccc(-c3cnc(OC)c(NS(=O)(=O)c4ccc(Cl)c(Cl)c4)c3)cc2c1=O | – | 8.00 | – | 6.62 | – | – | – |
| COc1ncc(-c2ccc3ncn(C[C@@H](C)C(=O)N4CCOCC4)c(=O)c3c2)cc1NS(=O)(=O)c1ccc(F)cc1Cl | 0.71 | 7.94 | – | 18.3 | 0.38 | – | – |
| CNC(=O)[C@H](C)Cn1cnc2ccc(-c3cnc(OC)c(NS(=O)(=O)c4c(C)noc4C)c3)cc2c1=O | 10 | 8.37 | – | 146 | 4.52 | – | – |
| CNC(=O)[C@H](C)Cn1cnc2ccc(-c3cnc(OC)c(NS(=O)(=O)c4cccnc4)c3)cc2c1=O | – | – | < 6.00 | – | – | – | – |
| CNC(=O)[C@H](C)Cn1cnc2ccc(-c3cnc(OC4CC4)c(NS(=O)(=O)c4ccc(F)cc4Cl)c3)cc2c1=O | – | – | 7.26 | – | – | – | – |
| CNC(=O)[C@H](C)Cn1cnc2ccc(-c3cnc(OC)c(NS(=O)(=O)c4sccc4C)c3)cc2c1=O | – | 8.39 | – | 43.1 | – | – | – |
| CNC(=O)[C@H](C)Cn1cnc2ccc(-c3cnc(N)c(NS(=O)(=O)c4ccc(F)cc4Cl)c3)cc2c1=O | – | 7.71 | < 6.00 | 283 | – | – | – |
| CNC(=O)[C@H](C)Cn1cnc2ccc(-c3cnc(OC)c(NS(=O)(=O)c4ccc(F)cc4)c3)cc2c1=O | 12.3 | 8.47 | 7.72 | 106 | 9.16 | 1370 nM·h | 5 µM |
| CNC(=O)[C@H](C)Cn1cnc2ccc(-c3cnc(OC)c(NS(=O)(=O)c4sc(C)nc4C)c3)cc2c1=O | 11.7 | 9.30 | 7.96 | 115 | 2.08 | – | – |
| CNC(=O)[C@H](C)Cn1cnc2ccc(-c3cnc(COC)c(NS(=O)(=O)c4ccc(F)cc4Cl)c3)cc2c1=O | – | < 6.00 | < 6.00 | – | – | – | – |
| COc1ncc(-c2ccc3ncc(NC(=O)N4CCC[C@H]4C(N)=O)c(=O)n3c2)cc1NS(=O)(=O)c1ccc(F)cc1Cl | 7.4 | 9.30 | 6.73 | 130 | 3.4 | – | – |

Further lines, results first:

| Ratio IC50 (Homo sapiens [1]) | pIC50 [2] | pIC50 [3] | Ratio IC50 (Homo sapiens [4]) | Ratio IC50 (Homo sapiens [5]) | AUClast/dose [6] | Cmax [7] | Compound |
| --- | --- | --- | --- | --- | --- | --- | --- |
| 9.87 | 8.26 | 7.25 | 107 | 3.41 | – | – | COc1ncc(-c2ccc3ncn(C[C@@H](C)C(=O)NCC(F)(F)F)c(=O)c3c2)cc1NS(=O)(=O)c1ccc(F)cc1Cl |
| – | 8.21 | – | 116 | – | – | – | COc1ncc(-c2ccc3ncn(C[C@@H](C)C(=O)NC4CC4(F)F)c(=O)c3c2)cc1NS(=O)(=O)c1ccc(F)cc1Cl (some centres undefined) |
| 6.28 | 8.46 | 7.39 | 187 | 5.63 | – | – | CCNC(=O)[C@H](C)Cn1cnc2ccc(-c3cnc(OC)c(NS(=O)(=O)c4ccc(F)cc4Cl)c3)cc2c1=O |
| 3.61 | – | 7.40 | 14.4 | 0.35 | – | – | COc1ncc(-c2ccc3ncn(CC4(C(N)=O)CC4)c(=O)c3c2)cc1NS(=O)(=O)c1ccc(F)cc1Cl |
| 9.22 | 8.31 | 7.14 | 229 | 6.06 | 723 nM.hr/(mg/kg) | 9.13 µM | COCCNC(=O)[C@H](C)Cn1cnc2ccc(-c3cnc(OC)c(NS(=O)(=O)c4ccc(F)cc4Cl)c3)cc2c1=O |
| – | 8.64 | – | – | – | – | – | CNC(=O)[C@@H](C)Cn1cnc2ccc(-c3cnc(OC)c(NS(=O)(=O)c4ccc(F)cc4Cl)c3)cc2c1=O |
| 6.38 | 8.10 | 7.09 | 424 | 3.03 | – | – | COc1ncc(-c2ccc3ncn(C[C@@H](C)C(=O)NCC(C)C)c(=O)c3c2)cc1NS(=O)(=O)c1ccc(F)cc1Cl |
| – | – | < 6.00 | 94.9 | – | – | – | CNC(=O)C(C)Cn1cnc2ccc(-c3cnc(OC(F)(F)F)c(NS(=O)(=O)c4ccc(F)cc4Cl)c3)cc2c1=O (racemic) |
| 3.27 | 8.08 | 7.09 | 186 | 2.12 | 302 nM·h | 4.73 µM | COc1ncc(-c2ccc3ncn(C[C@@H](C)C(=O)NC4CCC4)c(=O)c3c2)cc1NS(=O)(=O)c1ccc(F)cc1Cl |
| 5.44 | 8.57 | 6.77 | 224 | 2.61 | – | – | COc1ncc(-c2ccc3ncn(C[C@@H](C)C(=O)NC4CC4)c(=O)c3c2)cc1NS(=O)(=O)c1ccc(F)cc1Cl |
| 7.41 | 8.60 | 7.17 | 162 | 7.61 | – | – | COc1ncc(-c2ccc3ncn(C[C@@H](C)C(=O)NCCF)c(=O)c3c2)cc1NS(=O)(=O)c1ccc(F)cc1Cl |
| 1.06 | 7.71 | – | 16.6 | 0.78 | – | – | COc1ncc(-c2ccc3ncn(C[C@@H](C)C(=O)N(C)C(C)C)c(=O)c3c2)cc1NS(=O)(=O)c1ccc(F)cc1Cl |
| – | 7.86 | 6.94 | 153 | – | – | – | CCOc1ncc(-c2ccc3ncn(C[C@@H](C)C(=O)NC)c(=O)c3c2)cc1NS(=O)(=O)c1ccc(F)cc1Cl |
| – | 8.96 | 8.03 | 30 | 1.91 | – | – | COc1ncc(-c2ccc3ncn(CCCC(N)=O)c(=O)c3c2)cc1NS(=O)(=O)c1ccc(F)cc1Cl |
| – | 8.68 | 6.72 | 262 | – | – | – | COc1ncc(-c2ccc3ncn(C[C@@H](C)C(=O)NC4COC4)c(=O)c3c2)cc1NS(=O)(=O)c1ccc(F)cc1Cl |
| 3.15 | 8.57 | – | 46.6 | 2.69 | – | – | COc1ncc(-c2ccc3ncn(CC(F)(F)C(N)=O)c(=O)c3c2)cc1NS(=O)(=O)c1ccc(F)cc1Cl |
| 7.92 | 7.71 | 6.43 | 259 | 3.11 | – | – | CCC(CC)NC(=O)[C@H](C)Cn1cnc2ccc(-c3cnc(OC)c(NS(=O)(=O)c4ccc(F)cc4Cl)c3)cc2c1=O |
| 9.87 | 8.16 | 7.21 | 107 | 3.41 | – | – | COc1ncc(-c2ccc3ncn(C[C@@H](C)C(=O)NC(C)C)c(=O)c3c2)cc1NS(=O)(=O)c1ccc(F)cc1Cl |
| 6.34 | 8.77 | 6.47 | 151 | 6.8 | – | – | COc1ncc(-c2ccc3ncn(C[C@@H](C)C(=O)NCCO)c(=O)c3c2)cc1NS(=O)(=O)c1ccc(F)cc1Cl |
| 1.04 | 7.59 | – | 5.97 | 0.63 | – | – | CCN(CC)C(=O)[C@H](C)Cn1cnc2ccc(-c3cnc(OC)c(NS(=O)(=O)c4ccc(F)cc4Cl)c3)cc2c1=O |
| – | – | 7.28 | 19.3 | – | – | – | CCC(Cn1cnc2ccc(-c3cnc(OC)c(NS(=O)(=O)c4ccc(F)cc4Cl)c3)cc2c1=O)C(N)=O (racemic) |
| – | – | 6.90 | 32.6 | – | – | – | COc1ncc(-c2ccc3ncn(CC(C(N)=O)C(C)C)c(=O)c3c2)cc1NS(=O)(=O)c1ccc(F)cc1Cl (racemic) |
| 3.94 | 8.92 | 7.77 | 59 | 3.34 | – | – | COc1ncc(-c2ccc3ncn(CCC(N)=O)c(=O)c3c2)cc1NS(=O)(=O)c1ccc(F)cc1Cl |
| 7.39 | – | 6.87 | 33.9 | 4.75 | – | – | COc1ncc(-c2ccc3ncn(CC(N)C(N)=O)c(=O)c3c2)cc1NS(=O)(=O)c1ccc(F)cc1Cl (racemic) |

From ChEMBL document CHEMBL4619796, “Discovery of 3-Quinazolin-4(3H)-on-3-yl-2,N-dimethylpropanamides as Orally Active and Selective PI3Kα Inhibitors” (ACS Med Chem Lett, 2020)
